# Data published in patent US20100261719A1, “CHEMICAL COMPOUNDS” (priority 2007, published 2010).
# Molecular target: Escherichia coli DNA gyrase A/B tetramer (Escherichia coli, UniProt P0AES4+P0AES6)
# Assay: DNA gyrase supercoiling activity fluorescence polarisation assay
# Format: biochemical
# Conditions: not given
# Protocol: In a black, 384-well polystyrene assay plate, 30 microliters/well of 5 nM Escherichia coli DNA gyrase A/B tetramer and 130 micrograms/ml of topologically relaxed plasmid containing the triplex-forming sequence […] in an assay buffer consisting of 35 mM Tris-HCl (pH 7.5), 24 mM KCl, 4 mM MgCl2, 2 mM dithiothreitol, 1.8 mM spermidine, 5% (v/v) glycerol, 200 nM bovine serum albumin, 0.8% dimethylsulfoxide, and 0.3 mM ATP may be incubated at ambient temperature for (typically 30 minutes) in the absence or presence of 5-10 different concentrations of test compound. The supercoiling reactions may be quenched by the addition of 10 microliters/well of 40 nM oligodeoxynucleotide probe in 3× triplex-forming buffer consisting of 150 mM NaCl, and 150 mM sodium acetate at pH 3.5. The oligodeoxynucleotide probe may be 5′-BODIPY-FL-labeled TTCTTCTTC. After 60 minutes, the fluorescence anisotropy of the BODIPY-FL may be measured in a Tecan Ultra plate reader, using 485 nm excitation and 535 nm emission filters equipped with polarizers. The IC50 may be determined by nonliner regression using two control reactions. The first contains no test compound but 0.8% DMSO (100% activity) while the second control reaction contains 5 uM Ciprofloxacin and 0.8% DMSO (0% activity).
# When tested in an in-vitro assay based on the DNA gyrase supercoiling activity fluorescence polarisation assay described above, the E. coli DNA gyrase supercoiling IC50 assay inhibitory activity of the following Examples was measured at the indicated IC50.
# Escherichia coli DNA gyrase A/B tetramer, sequence (P0AES4 whole entry, one chain of several): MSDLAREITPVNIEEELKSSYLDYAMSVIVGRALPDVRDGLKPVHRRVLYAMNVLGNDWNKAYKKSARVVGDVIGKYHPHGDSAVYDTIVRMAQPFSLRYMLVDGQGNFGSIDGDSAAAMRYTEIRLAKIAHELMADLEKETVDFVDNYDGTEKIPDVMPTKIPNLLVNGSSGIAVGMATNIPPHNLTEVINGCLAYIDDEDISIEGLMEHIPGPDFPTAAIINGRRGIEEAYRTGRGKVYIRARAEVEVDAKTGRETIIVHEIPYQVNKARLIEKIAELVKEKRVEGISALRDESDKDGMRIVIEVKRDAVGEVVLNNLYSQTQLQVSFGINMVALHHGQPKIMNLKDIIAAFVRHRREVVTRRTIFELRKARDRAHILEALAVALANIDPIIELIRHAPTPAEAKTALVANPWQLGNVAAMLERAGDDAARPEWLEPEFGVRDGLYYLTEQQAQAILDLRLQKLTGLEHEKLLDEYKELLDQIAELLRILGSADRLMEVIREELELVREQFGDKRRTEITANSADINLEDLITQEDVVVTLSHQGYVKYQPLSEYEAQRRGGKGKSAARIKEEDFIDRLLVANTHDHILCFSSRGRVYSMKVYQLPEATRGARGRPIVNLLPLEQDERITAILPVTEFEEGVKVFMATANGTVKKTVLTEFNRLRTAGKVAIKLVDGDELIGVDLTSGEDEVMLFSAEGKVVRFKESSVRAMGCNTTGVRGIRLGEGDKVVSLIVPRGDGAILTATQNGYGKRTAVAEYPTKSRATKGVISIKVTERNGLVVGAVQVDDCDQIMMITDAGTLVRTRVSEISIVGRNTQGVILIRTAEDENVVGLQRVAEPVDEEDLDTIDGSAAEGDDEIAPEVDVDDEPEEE
row,Molecule,IC50 [µM]
1,"C[C@@H]1CN2c3c(cc(/C=N/N4CCCC4)c(F)c3F)CC3(C(=O)NC(=O)NC3=O)[C@H]2[C@H](C)O1 (relative stereo) [Example 21, (2R,4S,4 aS)-rel-9,10-Difluoro-2,4-dimethyl-8-[(E)-(pyrrolidin-1-ylimino)methyl]-1,2,4,4a-tetrahydro-2′H,6H-spiro[1,4-oxazino[4,3-a]quinoline-5,5′-pyrimidine]-2′,4′,6′(1′H,3′H)-trione]",2.25
2,"COCC(=O)N/N=C(\C)c1cc2c(c(F)c1F)N1C[C@@H](C)O[C@@H](C)[C@@H]1C1(C2)C(=O)NC(=O)NC1=O (relative stereo) [Example 55, N′-{(1E)-1-[(2R,4S,4aS)-rel-9,10-Difluoro-2,4-dimethyl-2′,4′,6′-trioxo-1,1′,2,3′,4,4′,4a,6′-octahydro-2′H,6H-spiro[1,4-oxazino[4,3-a]quinoline-5,5′-pyrimidin]-8-yl]ethylidene}-2-methoxyacetohydrazide]",7.59
3,"C[C@@H]1CN2c3c(cc(C(=O)NC4CCNCC4)c(F)c3F)CC3(C(=O)NC(=O)NC3=O)[C@H]2[C@H](C)O1 (relative stereo) [Example 71, (2R,4S,4aS)-rel-9,10-Difluoro-2,4-dimethyl-2′,4′,6′-trioxo-N-(piperidin-4-yl)-1,1′,2,3′,4,4′,4a,6′-octahydro-2′H,6H-spiro[1,4-oxazino[4,3-a]quinoline-5 ,5′-pyrimidine]-8-carboxamide]",5.97
4,"C[C@@H]1CN2c3ccc(C#Cc4ccccn4)cc3CC3(C(=O)NC(=O)NC3=O)C2[C@H](C)O1 (relative stereo) [Example 2, (2R,4S)-rel-2,4-Dimethyl-8-(pyridin-2-ylethynyl)-1,2,4,4a-tetrahydro-2′H,6H-spiro[1,4-oxazino[4,3-a]quinoline-5,5′-pyrimidine]-2′,4′,6′(1′H,3′H)-trione]",2.09
5,"C[C@@H]1CN2c3c(cc(C(=O)NC4CCOC4=O)c(F)c3F)CC3(C(=O)NC(=O)NC3=O)[C@H]2[C@H](C)O1 (relative stereo) [Example 61, (2R,4S,4aS)-rel-9,10-Difluoro-2,4-dimethyl-2′,4′,6′-trioxo-N-(2-oxotetrahydrofuran-3-yl)-1,1′,2,3′,4,4′,4a,6′-octahydro-2′H,6H-spiro[1,4-oxazino[4,3-a]quinoline-5,5′-pyrimidine]-8-carboxamide]",4.84
6,"C[C@@H]1CN2c3cc(F)c(C#Cc4cc5ccccc5s4)cc3CC3(C(=O)NC(=O)NC3=O)[C@H]2[C@H](C)O1 (racemic) [Example 29, (2R,4S,4aS)-rel-8-(1-Benzothiophen-2-ylethynyl)-9-fluoro-2,4-dimethyl-1,2,4,4a-tetrahydro-2′H,6H-spiro[1,4-oxazino[4,3-a]quinoline-5,5′-pyrimidine]-2′,4′,6′(1′H,3′H)-trione]",20
7,"C[C@H]1CN2c3c(cc(C#Cc4nncs4)c(F)c3F)CC3(C(=O)NC(=O)NC3=O)[C@@H]2[C@@H](C)O1 (relative stereo) [Example 7, (2S,4R,4aR)-rel-9,10-Difluoro-2,4-dimethyl-8-(1,3,4-thiadiazol-2-ylethynyl)-1,2,4,4a-tetrahydro-2′H,6H-spiro[1,4-oxazino[4,3-a]quinoline-5,5′-pyrimidine]-2′,4′,6′(1′H,3′H)-trione]",0.41
8,"C[C@@H]1CN2c3c(F)cc(C#Cc4cc5ccccc5s4)cc3CC3(C(=O)NC(=O)NC3=O)[C@H]2[C@H](C)O1 (racemic) [Example 41, (2R,4S,4aS)-rel-8-(1-Benzothiophen-2-ylethynyl)-10-fluoro-2,4-dimethyl-1,2,4,4a-tetrahydro-2′H,6H-spiro[1,4-oxazino[4,3-a]quinoline-5,5′-pyrimidine]-2′,4′,6′(1′H,3′H)-trione]",7.16
9,"C/C(=N\NC(=O)OC(C)(C)C)c1cc2c(c(F)c1F)N1C[C@@H](C)O[C@@H](C)[C@@H]1C1(C2)C(=O)NC(=O)NC1=O (relative stereo) [Example 50, tert-Butyl (2E)-2-{1-[(2R,4S,4aS)-rel-9,10-difluoro-2,4-dimethyl-2′,4′,6′-trioxo-1,1′,2,3′,4,4′,4a,6′-octahydro-2′H,6H-spiro[1,4-oxazino[4,3-a]quinoline-5,5′-pyrimidin]-8-yl]ethylidene}hydrazinecarboxylate]",2.36
10,"C[C@H]1CN2c3c(cc(C#Cc4ncc[nH]4)c(F)c3F)CC3(C(=O)NC(=O)NC3=O)[C@@H]2[C@@H](C)O1 (relative stereo) [Example 16, (2S,4R,4aR)-rel-9,10-Difluoro-8-(1H-imidazol-2-ylethynyl)-2,4-dimethyl-1,2,4,4a-tetrahydro-2′H,6H-spiro[1,4-oxazino[4,3-a]quinoline-5,5′-pyrimidine]-2′,4′,6′(1′H,3′H)-trione]",0.69
11,"C[C@H]1CN2c3c(cc(C#Cc4ncccn4)c(F)c3F)CC3(C(=O)NC(=O)NC3=O)[C@@H]2[C@@H](C)O1 (relative stereo) [Example 19, (2S,4R,4aR)-rel-9,10-Difluoro-2,4-dimethyl-8-(pyrimidin-2-ylethynyl)-1,2,4,4a-tetrahydro-2′H,6H-spiro[1,4-oxazino[4,3-a]quinoline-5,5′-pyrimidine]-2′,4′,6′(1′H,3′H)-trione]",0.52
12,"C[C@@H]1CN2c3ccc(NC(=O)N4CCNC4=O)cc3CC3(C(=O)NC(=O)NC3=O)[C@H]2[C@H](C)O1 (relative stereo) [Example 76, N-[(2R,4S,4aS)-rel-2,4-Dimethyl-2′,4′,6′-trioxo-1,1′,2,3′,4,4′,4a,6′-octahydro-2′H,6H-spiro[1,4-oxazino[4,3-a]quinoline-5,5′-pyrimidin]-8-yl]-2-oxoimidazolidine-1-carboxamide]",16.5
13,"C[C@@H]1CN2c3ccc(C#Cc4nccn4C)cc3CC3(C(=O)NC(=O)NC3=O)[C@H]2[C@H](C)O1 (relative stereo) [Example 4, (2R,4S,4aS)-rel-2,4-Dimethyl-8-[(1-methyl-1H-imidazol-2-yl)ethynyl]-1,2,4,4a-tetrahydro-2′H,6H-spiro[1,4-oxazino[4,3-a]quinoline-5,5′-pyrimidine]-2′,4′,6′(1′H,3′H)-trione]",0.63

# Same assay, conditions: 5 nM enzyme, 0.3 mM ATP, relaxed plasmid, fluorescence anisotropy readout; read-out: E. coli DNA gyrase supercoiling IC50
row,Molecule,IC50 [µM]
1,"(2R,4S,4aS)-rel-9,10-Difluoro-2,4-dimethyl-8-[(E)-(morpholin-4-ylimino)methyl]-1,2,4,4a-tetrahydro-2′H,6H-spiro[1,4-oxazino[4,3-a]quinoline-5,5′-pyrimidine]-2′,4′,6(1′H,3′H)-trione [Example 22]",1.57
2,"(2R,4S,4aS)-rel-10-Fluoro-2,4-dimethyl-8-[(1-methyl-1H-imidazol-2-yl)ethynyl]-1,2,4,4a-tetrahydro-2′H,6H-spiro[1,4-oxazino[4,3-a]quinoline-5,5′-pyrimidine]-2′,4′,6(1′H,3′H)-trione [Example 42]",0.64
3,"C[C@@H]1CN2c3c(cc(C(=O)NC4CCN(C(=O)OC(C)(C)C)C4)c(F)c3F)CC3(C(=O)NC(=O)NC3=O)[C@H]2[C@H](C)O1 (relative stereo) [Example 63, tert-Butyl 3-({[2R,4S,4aS)-rel-9,10-difluoro-2,4-dimethyl-2′,4′,6′-trioxo-1,1′,2,3′,4,4′,4a,6′-octahydro-2′H,6H-spiro[1,4-oxazino[4,3-a]quinoline-5,5′-pyrimidin]-8-yl]carbonyl}amino)pyrrolidine-1-carboxylate]",6.4
